According to US7183415B2, “Quinoline compound” (Takeda Pharmaceutical Company Limited, priority 2001, dated 2007):

melting point	SMILES
204 °C	O=C(Nc1ccc2cc(CN3CCCCCC3)cnc2c1)c1ccc(-c2ccc(Cl)cc2)cc1 [Example 27, N-[3-(1-azepanylmethyl)-7-quinolinyl]-4′-chloro[1,1′-biphenyl]-4-carboxamide]
283 °C	Cc1cc2cc(CN3CCCC3)cnc2cc1NC(=O)c1ccc(-c2ccccc2Cl)cc1.Cl
156 to 158 °C	CCCC(=O)Oc1ccc(C(=O)Nc2ccc3cc(CN4CCCC4)cnc3c2C)cc1 [Example 331, 4-({[8-methyl-3-(1-pyrrolidinylmethyl)-7-quinolinyl]amino}carbonyl)phenyl butyrate]
187 to 190 °C	COc1ccc(-c2ccc(C(=O)Nc3cc4ncc(CN5CCCC5)cc4cc3C)c(F)c2)cc1 [Example 227, 3-fluoro-4′-methoxy-N-[6-methyl-3-(1-pyrrolidinylmethyl)-7-quinolinyl][1,1′-biphenyl]-4-carboxamide]
153 to 158 °C	Cc1cc2cc(CN3CCOCC3)cnc2cc1NC(=O)c1ccc(-c2ccc(F)cc2)cc1 [Example 252, 4′-fluoro-N-[6-methyl-3-(4-morpholinylmethyl)-7-quinolinyl][1,1′-biphenyl]-4-carboxamide]
175 to 178 °C	Cc1c(NC(=O)c2ccc(-c3ccc(OC(F)(F)F)cc3)cc2F)ccc2cc(CN3CCCC3)cnc12 [Example 136, 3-fluoro-N-[8-methyl-3-(1-pyrrolidinylmethyl)-7-quinolinyl]-4′-(trifluoromethoxy)[1,1′-biphenyl]-4-carboxamide]
229 °C	Cc1cc2cc(CN3CCC(C(=O)N(C)C)CC3)cnc2cc1NC(=O)c1ccc(-c2ccc(F)cc2)cc1 [Example 274, 1-[(7-{[(4′-fluoro-1,1′-biphenyl-4-yl)carbonyl]amino}-6-methyl-3-quinolinyl)methyl]-N,N-dimethylpiperidine-4-carboxamide]
227 to 229 °C	Cc1c(NC(=O)c2ccc(-c3ccc(Cl)cc3)cc2)ccc2cc(CN3CCCC3)cnc12 [Example 21, 4′-chloro-N-[8-methyl-3-(1-pyrrolidinylmethyl)-7-quinolinyl][1,1′-biphenyl]-4-carboxamide]
202 to 204 °C	Cc1ccc(-c2ccc(C(=O)Nc3cc4ncc(CN5CCCC5)cc4cc3F)cc2)cc1 [Example 54, N-[6-fluoro-3-(1-pyrrolidinylmethyl)-7-quinolinyl]-4′-methyl[1,1′-biphenyl]-4-carboxamide]
176 to 178 °C	Cc1c(NC(=O)c2ccc(-c3ccc(F)cc3)cc2)ccc2cc(CN3CCOCC3)cnc12 [Example 198, 4′-fluoro-N-[8-methyl-3-(4-morpholinylmethyl)-7-quinolinyl][1,1′-biphenyl]-4-carboxamide]
148 to 149 °C	Cc1cc2cc(CN3CCCC3)cnc2cc1NC(=O)c1ccc(-c2ccccc2F)cc1 [Example 213, 2′-fluoro-N-[6-methyl-3-(1-pyrrolidinylmethyl)-7-quinolinyl][1,1′-biphenyl]-4-carboxamide]
185 °C	O=C(Nc1cc2ncc(CN3CCCC3)cc2cc1Cl)c1ccc(-c2ccc(Cl)s2)cc1 [Example 69, N-[6-chloro-3-(1-pyrrolidinylmethyl)-7-quinolinyl]-4-(5-chlorothien-2-yl)benzamide]
190 to 192 °C	Cc1c(NC(=O)c2ccc(-c3ccc(Cl)cc3)c(F)c2)ccc2cc(CN3CCCC3)cnc12 [Example 154, 4′-chloro-2-fluoro-N-[8-methyl-3-(1-pyrrolidinylmethyl)-7-quinolinyl][1,1′-biphenyl]-4-carboxamide]
206 to 208 °C	O=C(Nc1ccc2cc(CN3CCCC3)cnc2c1F)c1ccc(-c2ccc(Cl)cc2)cc1 [Example 75, 4′-chloro-N-[8-fluoro-3-(1-pyrrolidinylmethyl)-7-quinolinyl][1,1′-biphenyl]-4-carboxamide]
193 to 194 °C	Cc1ccc(-c2ccc(C(=O)Nc3ccc4cc(CN5CCCC5)cnc4c3C)cc2F)cc1 [Example 155, 2-fluoro-4′-methyl-N-[8-methyl-3-(1-pyrrolidinylmethyl)-7-quinolinyl][1,1′-biphenyl]-4-carboxamide]
179 to 180 °C	Cc1c(NC(=O)c2ccc(-c3ccc(F)cc3)cc2)ccc2cc(CN(C(C)C)C(C)C)cnc12 [Example 194, N-{3-[(diisopropylamino)methyl]-8-methyl-7-quinolinyl}-4′-fluoro[1,1′-biphenyl]-4-carboxamide]
186 to 187 °C	Cc1c(NC(=O)c2ccc(-c3ccc(Cl)s3)cc2)ccc2cc(CN3CCCCCC3)cnc12 (hydrate or solvate) [Example 181, N-[3-(1-azepanylmethyl)-8-methyl-7-quinolinyl]-4-(5-chloro-2-thienyl)benzamide]
174 to 177 °C	Cc1cc2cc(CN3CCCC3)cnc2cc1NC(=O)c1ccc(-c2ccc(F)cc2)cc1F [Example 228, 3,4′-difluoro-N-[6-methyl-3-(1-pyrrolidinylmethyl)-7-quinolinyl][1,1′-biphenyl]-4-carboxamide]

melting point	SMILES
162 to 163 °C	Cc1c(NC(=O)c2ccc(-c3ccc4c(c3)CCCCO4)cc2)ccc2cc(CN3CCCC3)cnc12 [Example 116, N-[8-methyl-3-(1-pyrrolidinylmethyl)-7-quinolinyl]-4-(2,3,4,5-tetrahydro-1-benzoxepin-7-yl)benzamide]
209 °C	Cc1cc2cc(CN3CCCCCC3)cnc2cc1NC(=O)c1ccc(-c2ccc(Cl)cc2)cc1F [Example 243, N-[3-(1-azepanylmethyl)-6-methyl-7-quinolinyl]-4′-chloro-3-fluoro[1,1′-biphenyl]-4-carboxamide]
217 to 220 °C	COc1ccc(-c2ccc(C(=O)Nc3ccc4cc(CN5CCCC5)cnc4c3F)cc2)cc1 [Example 72, N-[8-fluoro-3-(1-pyrrolidinylmethyl)-7-quinolinyl]-4′-methoxy[1,1′-biphenyl]-4-carboxamide]
219 °C	Cc1cc2cc(CN3CCC(CC(=O)N(C)C)CC3)cnc2cc1NC(=O)c1ccc(-c2ccc(F)cc2)cc1 [Example 268, N-[3-({4-[2-(dimethylamino)-2-oxoethyl]-1-piperidinyl}methyl)-6-methyl-7-quinolinyl]-4′-fluoro[1,1′-biphenyl]-4-carboxamide]
151 to 153 °C	Cc1c(NC(=O)c2ccc(-c3ccccc3)cc2F)ccc2cc(CN3CCCCCC3)cnc12 (hydrate or solvate) [Example 183, N-[3-(1-azepanylmethyl)-8-methyl-7-quinolinyl]-3-fluoro[1,1′-biphenyl]-4-carboxamide]
188 to 190 °C	Cc1c(NC(=O)c2ccc(-c3ccc(F)cc3)cc2)ccc2cc(CN3CCCCC3)cnc12 [Example 166, 4′-fluoro-N-[8-methyl-3-(1-piperidinylmethyl)-7-quinolinyl][1,1′-biphenyl]-4-carboxamide]
244 to 246 °C	Cc1ccc(C2CCN(C(=O)Nc3ccc4cc(CN5CCCC5)cnc4c3)CC2)cc1 [Example 15, 4-(4-methylphenyl)-N-[3-(1-pyrrolidinylmethyl)-7-quinolinyl]-1-piperidine carboxamide]
167 to 170 °C	Cc1cc2cc(CN3CCCC3)cnc2cc1NC(=O)c1ccc(-c2ccccc2)c(F)c1 [Example 232, 2-fluoro-N-[6-methyl-3-(1-pyrrolidinylmethyl)-7-quinolinyl][1,1′-biphenyl]-4-carboxamide]
171 to 172 °C	COc1ccc(-c2ccc(C(=O)Nc3ccc4cc(CN5CCCCCC5)cnc4c3C)c(F)c2)cc1 [Example 185, N-[3-(1-azepanylmethyl)-8-methyl-7-quinolinyl]-3-fluoro-4′-methoxy[1,1′-biphenyl]-4-carboxamide]
200 to 202 °C	Cc1cc(C(=O)Nc2ccc3cc(CN4CCCC4)cnc3c2C)ccc1-c1ccc(F)cc1 [Example 160, 4′-fluoro-2-methyl-N-[8-methyl-3-(1-pyrrolidinylmethyl)-7-quinolinyl][1,1′-biphenyl]-4-carboxamide]
173 °C	Cc1ccc(-c2ccc(C(=O)Nc3ccc4cc(CN5CCCC5)cnc4c3F)c(F)c2)cc1 [Example 278, 3-fluoro-N-[8-fluoro-3-(1-pyrrolidinylmethyl)-7-quinolinyl]-4′-methyl[1,1′-biphenyl]-4-carboxamide]
218 to 220 °C	O=C(Nc1ccc2cc(CN3CCCC3)cnc2c1)c1ccc(-c2ccc(F)cc2)nc1 [Example 9, 6-(4-fluorophenyl)-N-[3-(1-pyrrolidinylmethyl)-7-quinolinyl]nicotinamide]
154 °C	Cc1cc2cc(CN3CCCC3)cnc2cc1NC(=O)c1ccc(-c2ccco2)cc1 [Example 224, 4-(2-furyl)-N-[6-methyl-3-(1-pyrrolidinylmethyl)-7-quinolinyl]benzamide]
181 to 185 °C	Cc1cc2cc(CN3CCCC3)cnc2cc1NC(=O)c1ccc(-c2ccc(Cl)cc2)c(F)c1 [Example 235, 4′-chloro-2-fluoro-N-[6-methyl-3-(1-pyrrolidinylmethyl)-7-quinolinyl][1,1′-biphenyl]-4-carboxamide]
151 °C	Cc1cc2cc(CN3CCCCCC3)cnc2cc1NC(=O)c1ccc(-c2ccccc2)cc1F [Example 246, N-[3-(1-azepanylmethyl)-6-methyl-7-quinolinyl]-3-fluoro[1,1′-biphenyl]-4-carboxamide]
153 to 155 °C	Cc1c(NC(=O)c2ccc(-c3ccc(F)cc3)cc2)ccc2cc(CN3CCC3)cnc12 [Example 191, N-[3-(1-azetidinylmethyl)-8-methyl-7-quinolinyl]-4′-fluoro[1,1′-biphenyl]-4-carboxamide]
194 to 195 °C	CC(=O)c1ccc(-c2ccc(C(=O)Nc3ccc4cc(CN5CCCC5)cnc4c3C)cc2)s1 (hydrate or solvate) [Example 119, 4-(5-acetyl-2-thienyl)-N-[8-methyl-3-(1-pyrrolidinylmethyl)-7-quinolinyl]benzamide]
239 to 241 °C	O=C(Nc1ccc2cc(CN3CCCC3)cnc2c1)N1CCC(c2ccc(F)cc2)CC1 [Example 14, 4-(4-fluorophenyl)-N-[3-(1-pyrrolidinylmethyl)-7-quinolinyl]-1-piperidine carboxamide]
